Patent US8283481B2, “Inhibitors of a 9-cis epoxycarotenoid dioxygenase” (National Research Council of Canada, priority 2008, dated 2012)

Assays:
[1] = tested on: ABA and catabolites in Arabidopsis thaliana Col-0 plants; assay: Total ABA metabolite levels in mannitol stressed plants treated with SLCCD inhibitors; format: in vivo; conditions: for effect on ABA and catabolite pools under osmotic stress, compared with 13 (in words): whole time course
Description: For each condition to be tested, three hundred wild-type Arabidopsis thaliana Col-0 seeds (LEHLE) were sterilized, vernalized and sewn onto 200 mL of Sunshine Mix #3 (Sun Gro) potting material in an 8×8×4 cm pot. Plants were watered continuously with 25 g/100 mL of 20-20-20 (PlantProd™) fertilizer and grown at 22° C. with a 16 hour photoperiod for 22 days. Plants were pre-treated with 50 mL/pot of Buffer A (10 mM HEPES pH 6.5) (Sigma)+/−10 or 33 μM test compound for 2 hours. Plants were then soaked with 50 mL/pot of Buffer A containing 0.4 M mannitol (Sigma)+/−10 or 33 μM test compound. Non-treated/non-stressed control plants were simply soaked in Buffer A at the designated time points. […] Half of the tissue samples were lyophilized for metabolite profiling and the other half taken for quantitative reverse-transcription polymerase chain reaction (qRT-PCR) analysis.
Freeze-dried tissue was homogenized using a multi-tube ball mill (Mini-BeadBeater-96™, Biospec Products Inc., Bartlesville, Okla., USA) and 50 mg of each sample was weighed out into individual Falcon tubes. To each sample, 100 μL of a cocktail of internal standards comprised of (−)-5,8′,8′,8′-d4-ABA, (−)-7′,7′,7′-d3-PA, (−)-5,8′,8′,8′-d4-7′OH ABA, (−)-7′,7′,7′-d3-DPA and (+)-4,5,8′,8′,8′-d5-ABAGE, each at a concentration of 0.2 ng/μL and dissolved in a mixture of water:acetonitrile (1:1, v/v) with 0.5% glacial acetic acid, was added. Further, 3 mL of isopropanol:water:glacial acetic acid (80:19:1, v/v/v) extraction solvent was added, and samples were placed in the fridge (4° C., in the dark) on an orbital shaker at about 350 rpm. After 18-24 hours, the samples were centrifuged at 4.4 krpm for 10 min, the supernatant was transferred to a disposable culture tube, and a second portion of 500 μL extraction solvent mixture was added to wash the pellet. After vortexing and centrifuging again at 4.4 krpm for 10 min, each wash was combined with its appropriate supernatant. The organic extract was dried under reduced pressure, then re-dissolved in 100 μL methanol:glacial acetic acid (99:1, v/v) followed by 900 μL of aqueous 1% glacial acetic acid. This mixture was extracted with 2 mL hexane, and then the aqueous layer was dried down under reduced pressure. The sample was further reconstituted in 2 mL aqueous 1% glacial acetic acid and loaded onto an Oasis MCX SPE cartridge (3 cc, Waters Corporation, Mississauga, Ontario, Canada). After a wash with 3 mL aqueous 1% glacial acetic acid, samples were eluted with 1 mL methanol:glacial acetic acid (99:1, v/v) and then dried down under reduced pressure. The extract was re-dissolved in 100 μL methanol:glacial acetic acid (99:1, v/v) followed by 900 μL of aqueous 1% glacial acetic acid. This mixture was further cleaned on an Oasis HLB SPE cartridge (1 cc, Waters Corporation, Mississauga, Ontario, Canada). After a wash with 1 mL aqueous 1% glacial acetic acid, the fraction containing ABA and ABA metabolites was eluted with 1 mL acetonitrile:water:glacial acetic acid (30:69:1, v/v/v) and then was evaporated to dryness. The final residue was dissolved in 200 μL of acetonitrile:water (15:85, v/v) containing 0.1% glacial acetic acid and 100 pg/μL (±)-3′,5′,5′,7′,7′,7′-d6-ABA as a recovery standard. Finally, the sample was subjected to LC-ES-MS/MS analysis and quantification, as described in Owen and Abrams, 2008.^39

[2] = tested on: CYP707A3; assay: qRT-PCR transcript level in mannitol stressed plants: CYP707A3; format: in vivo, Arabidopsis thaliana; conditions: 10 and 33 μM, 6 hours post-compound treatment, normalized to UBQ10
Description: (§1) For each condition to be tested, three hundred wild-type Arabidopsis thaliana Col-0 seeds (LEHLE) were sterilized, vernalized and sewn onto 200 mL of Sunshine Mix #3 (Sun Gro) potting material in an 8×8×4 cm pot. Plants were watered continuously with 25 g/100 mL of 20-20-20 (PlantProdTM) fertilizer and grown at 22° C. with a 16 hour photoperiod for 22 days. Plants were pre-treated with 50 mL/pot of Buffer A (10 mM HEPES pH 6.5) (Sigma)+/-10 or 33 μM test compound for 2 hours. Plants were then soaked with 50 mL/pot of Buffer A containing 0.4 M mannitol (Sigma)+/-10 or 33 μM test compound. Non-treated/non-stressed control plants were simply soaked in Buffer A at the designated time points. Aerial plant tissue was harvested after 6, 12 and 48 hours from the time of initial inhibitor treatment and flash frozen in liquid nitrogen. Half of the tissue samples were lyophilized for metabolite profiling and the other half taken for quantitative reverse-transcription polymerase chain reaction (qRT-PCR) analysis. […] The resulting mRNA was quantified and checked for quality using a Nano-DropTM ND-1000 Spectrophotometer. QuantiTectTM Reverse Transcription Kit (Qiagen) was used to produce cDNA as directed by the manufacturer from 20 ng of starting mRNA. […] Relative changes in transcript level were normalized using UBQ10 and quantified as previously described.^41

[3] = tested on: Rd29B; assay: qRT-PCR transcript level in mannitol stressed plants: Rd29B; format: in vivo, Arabidopsis thaliana; conditions: 10 and 33 μM, 6 hours post-compound treatment, normalized to UBQ10
Description: as §1

[4] = tested on: CYP707A1; assay: qRT-PCR transcript level in mannitol stressed plants: CYP707A1; format: in vivo, Arabidopsis thaliana; conditions: 10 and 33 μM, 6 hours post-compound treatment, normalized to UBQ10
Description: as §1

[5] = 33 μM inhibitor, mannitol stress

C/C(C#C[C@@]12O[C@]1(C)C[C@@H](O)CC2(C)C)=C/CNc1ccccc1 [Compound 18, (1R,3S,6R)-(3′Z)-1,5,5-Trimethyl-6-(3′-methyl-5′-(phenylamino)-pent-3′-en-1-ynyl)-7-oxabicyclo[4.1.0]heptan-3-ol]
effect on ABA and catabolite pools under osmotic stress, compared with 13 (in words) [1, 5]: less effective than 13

C/C(C#C[C@@]12O[C@]1(C)C[C@@H](O)CC2(C)C)=C/CSc1ccccc1 [Compound 17, (1R,3S,6R)-(3′Z)-1,5,5-Trimethyl-6-(3′-methyl-5′-(phenylthio)-pent-3′-en-1′-ynyl)-7-oxa-bicyclo[4.1.0]heptan-3-ol]
effect on ABA and catabolite pools under osmotic stress, compared with 13 (in words) [1, 5]: less effective than 13

CCSCC=C(C)C#CC1(O)C(C)CC(=O)CC1(C)C (racemic) [Compound 13, (4S,5R/4R,5S)-(3′Z)-4-(5′-(Ethylthio)-3′-methylpent-3′-en-1′-ynyl)-4-hydroxy-3,3,5-trimethylcyclohexanone]
CYP707A3 mRNA transcript level vs mannitol-stressed control (in words) [2]: reductions in the accumulation of mRNA transcript levels | inhibition of mannitol-induced Rd29b transcription [3]: about 90% | CYP707A1 mRNA transcript level vs mannitol-stressed control (in words) [4]: reductions in the accumulation of mRNA transcript levels | total levels of ABA and catabolites ([1]; 33 μM inhibitor 2 h before and during 0.4 M mannitol stress, 24 hours, mannitol only 15147 pmol/g): 8211 pmol/g | levels of ABA and catabolites at first time point (in words) ([1]; 33 μM inhibitor, mannitol stress, first 6 hours): comparable to those of the non-treated/non-stressed control plants
